# Assay results reported in patent US10597388B2, “Pyridazinone herbicides” (FMC CORPORATION, priority 2014, dated 2020).
# How the values were obtained:
# Assay in all cases: Test D controlled growth environment herbicide test, pre- and postemergence
# Assay type in all cases: in vivo
# [1] = test system: barley, spring (spring barley, Hordeum vulgare)
# Outline: (§1)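 Pre-emergence: seeds sown in silt loam soil were sprayed with compound in a non-phytotoxic solvent mix containing surfactant. Post-emergence: plants at 2 to 18 cm (1- to 4-leaf stage) in peat moss/vermiculite medium got the same formulation. Visual 0–100 rating versus controls after 14 to 21 d.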
# [2] = test system: barley, winter (winter barley, Hordeum vulgare)
# Outline: as §1
# [3] = test system: bluegrass (annual bluegrass, Poa annua)
# Outline: as §1
# [4] = test system: buckwheat, wild (wild buckwheat, Polygonum convolvulus)
# Outline: as §1
# [5] = test system: canarygrass (Phalaris minor)
# Outline: as §1
# [6] = test system: chamomile (scentless chamomile, Matricaria inodora)
# Outline: as §1
# [7] = test system: field poppy (Papaver rhoeas)
# Outline: as §1
# [8] = test system: field violet (Viola arvensis)
# Outline: as §1
# [9] = test system: galium (catchweed bedstraw, Galium aparine)
# Outline: as §1
# [10] = test system: kochia (Kochia scoparia)
# Outline: as §1
# [11] = test system: lambsquarters (Chenopodium album)
# Outline: as §1
# [12] = test system: pigweed (Amaranthus retroflexus)
# Outline: as §1
# [13] = test system: radish, wild (wild radish, Raphanus raphanistrum)
# Outline: as §1
# [14] = test system: windgrass (Apera spica-venti)
# Outline: as §1
# [15] = Postemergence, 31 g ai/ha, scale 0 to 100 (0 no effect, 100 complete control)
# [16] = Postemergence, 125 g ai/ha, visual rating on scale 0 (no effect) to 100 (complete control), 14 to 21 d
# [17] = Postemergence, 250 g ai/ha, scale 0 to 100 (0 no effect, 100 complete control)
# [18] = Preemergence, 62 g ai/ha, scale 0 to 100 (0 no effect, 100 complete control)
# [19] = Preemergence, 125 g ai/ha, scale 0 to 100 (0 no effect, 100 complete control)
# [20] = Preemergence, 250 g ai/ha, scale 0 to 100, 0 no effect, 100 complete control
# [21] = postemergence, 62 g ai/ha, scale 0 to 100, 0 no effect, 100 complete control
compound,measurement,setting,value
Cn1nc(Br)c(O)c(-c2cccc3ccccc23)c1=O [Compound 20],"Plant response rating, Barley, Spring",[1]; [15],0
same,"Plant response rating, Barley, Spring",[1]; [16],0
same,"Plant response rating, Barley, Spring",[1]; [17],0
same,"Plant response rating (scale of 0 to 100), Barley, Spring","[1]; Preemergence, 31 g ai/ha",0
same,"Plant response rating, Barley, Spring",[1]; [18],0
same,"Plant response rating, Barley, Spring",[1]; [19],0
same,"Barley, Spring plant response rating",[1]; [20],0
same,"Plant response rating, Barley, Spring",[1]; [21],0
same,"Plant response rating, Barley, Winter",[2]; [15],0
same,"Plant response rating, Barley, Winter",[2]; [16],0
same,"Plant response rating, Barley, Winter",[2]; [17],0
same,"Plant response rating (scale of 0 to 100), Barley, Winter","[2]; Preemergence, 31 g ai/ha",0
same,"Plant response rating, Barley, Winter",[2]; [18],0
same,"Plant response rating, Barley, Winter",[2]; [19],0
same,"Barley, Winter plant response rating",[2]; [20],0
same,"Plant response rating, Barley, Winter",[2]; [21],0
same,Bluegrass plant response rating,[3]; [15],10
same,"Plant response rating, Bluegrass",[3]; [16],30
same,"Plant response rating, Bluegrass",[3]; [17],40
same,"Plant response rating (scale of 0 to 100), Bluegrass","[3]; Preemergence, 31 g ai/ha",10
same,"Plant response rating, Bluegrass",[3]; [18],15
same,"Plant response rating, Bluegrass",[3]; [19],25
same,Bluegrass plant response rating,[3]; [20],35
same,"Plant response rating, Bluegrass",[3]; [21],25
same,"Buckwheat, Wild plant response rating",[4]; [15],80
same,"Plant response rating, Buckwheat, Wild",[4]; [16],100
same,"Plant response rating, Buckwheat, Wild",[4]; [17],100
same,"Plant response rating (scale of 0 to 100), Buckwheat, Wild","[4]; Preemergence, 31 g ai/ha",15
same,"Plant response rating, Buckwheat, Wild",[4]; [18],20
same,"Plant response rating, Buckwheat, Wild",[4]; [19],100
same,"Plant response rating, Buckwheat, Wild",[4]; [20],100
same,"Plant response rating, Buckwheat, Wild",[4]; [21],100
same,Canarygrass plant response rating,[5]; [15],10
same,"Plant response rating, Canarygrass",[5]; [16],45
same,"Plant response rating, Canarygrass",[5]; [17],55
same,"Plant response rating (scale of 0 to 100), Canarygrass","[5]; Preemergence, 31 g ai/ha",25
same,"Plant response rating, Canarygrass",[5]; [18],35
same,"Plant response rating, Canarygrass",[5]; [19],70
same,"Plant response rating, Canarygrass",[5]; [20],80
same,"Plant response rating, Canarygrass",[5]; [21],30
same,Chamomile plant response rating,[6]; [15],70
same,"Plant response rating, Chamomile",[6]; [16],100
same,"Plant response rating, Chamomile",[6]; [17],100
same,"Plant response rating, Chamomile",[6]; [21],95
same,Field Poppy plant response rating,[7]; [15],30
same,"Plant response rating, Field Poppy",[7]; [16],100
same,"Plant response rating, Field Poppy",[7]; [17],100
same,"Plant response rating (scale of 0 to 100), Field Poppy","[7]; Preemergence, 31 g ai/ha",70
same,"Plant response rating, Field Poppy",[7]; [18],70
same,"Plant response rating, Field Poppy",[7]; [19],95
same,"Plant response rating, Field Poppy",[7]; [20],100
same,"Plant response rating, Field Poppy",[7]; [21],60
same,Field Violet plant response rating,[8]; [15],5
same,"Plant response rating, Field Violet",[8]; [16],25
same,"Plant response rating, Field Violet",[8]; [17],45
same,"Plant response rating (scale of 0 to 100), Field Violet","[8]; Preemergence, 31 g ai/ha",0
same,"Plant response rating, Field Violet",[8]; [18],15
same,"Plant response rating, Field Violet",[8]; [19],25
same,"Plant response rating, Field Violet",[8]; [20],75
same,"Plant response rating, Field Violet",[8]; [21],15
same,Galium plant response rating,[9]; [15],70
same,"Plant response rating, Galium",[9]; [16],100
same,"Plant response rating, Galium",[9]; [17],100
same,"Plant response rating (scale of 0 to 100), Galium","[9]; Preemergence, 31 g ai/ha",10
same,"Plant response rating, Galium",[9]; [18],30
same,"Plant response rating, Galium",[9]; [19],75
same,"Plant response rating, Galium",[9]; [20],85
same,"Plant response rating, Galium",[9]; [21],75
same,Kochia plant response rating,[10]; [15],35
same,"Plant response rating, Kochia",[10]; [16],85
same,"Plant response rating, Kochia",[10]; [17],100
same,"Plant response rating (scale of 0 to 100), Kochia","[10]; Preemergence, 31 g ai/ha",0
same,"Plant response rating, Kochia",[10]; [18],25
same,"Plant response rating, Kochia",[10]; [19],70
same,"Plant response rating, Kochia",[10]; [20],90
same,"Plant response rating, Kochia",[10]; [21],65
same,Lambsquarters plant response rating,[11]; [15],85
same,"Plant response rating, Lambsquarters",[11]; [16],90
same,"Plant response rating, Lambsquarters",[11]; [17],95
same,"Plant response rating (scale of 0 to 100), Lambsquarters","[11]; Preemergence, 31 g ai/ha",75
same,"Plant response rating, Lambsquarters",[11]; [18],90
same,"Plant response rating, Lambsquarters",[11]; [19],100
same,"Plant response rating, Lambsquarters",[11]; [20],100
same,"Plant response rating, Lambsquarters",[11]; [21],85
same,Pigweed plant response rating,[12]; [15],80
same,"Plant response rating, Pigweed",[12]; [16],100
same,"Plant response rating, Pigweed",[12]; [17],100
same,"Plant response rating (scale of 0 to 100), Pigweed","[12]; Preemergence, 31 g ai/ha",30
same,"Plant response rating, Pigweed",[12]; [18],40
same,"Plant response rating, Pigweed",[12]; [19],100
same,"Plant response rating, Pigweed",[12]; [20],100
same,"Plant response rating, Pigweed",[12]; [21],100
same,"Radish, Wild plant response rating",[13]; [15],50
same,"Plant response rating, Radish, Wild",[13]; [16],70
same,"Plant response rating, Radish, Wild",[13]; [17],65
same,"Plant response rating (scale of 0 to 100), Radish, Wild","[13]; Preemergence, 31 g ai/ha",0
same,"Plant response rating, Radish, Wild",[13]; [18],0
same,"Plant response rating, Radish, Wild",[13]; [19],50
same,"Plant response rating, Radish, Wild",[13]; [20],65
same,"Plant response rating, Radish, Wild",[13]; [21],40
same,Windgrass plant response rating,[14]; [15],25
same,"Plant response rating, Windgrass",[14]; [16],30
same,"Plant response rating, Windgrass",[14]; [17],40
same,"Plant response rating (scale of 0 to 100), Windgrass","[14]; Preemergence, 31 g ai/ha",35
same,"Plant response rating, Windgrass",[14]; [18],40
same,"Plant response rating, Windgrass",[14]; [19],50
same,"Plant response rating, Windgrass",[14]; [20],60
same,"Plant response rating, Windgrass",[14]; [21],30
